One data set has as its system Herpes sp. Nature of the data set: Patients with recurrent herpetic lesions (cutaneous and genital), symptom recurrence. It counts as in vivo, Herpes virus (host: human patients). The settings on record: Acyclovir alone, oral, 3 daily doses of 200 mg, 10 days.
A further data set deals with Candida sp. The following applies: 20 HIV/AIDS patients per group, Fluconazole 400 mg/day × 5 days oral, Immunomodulator 10 mg/day × 5 days i.m.
A further data set relates to Plasmodium chabaudi. Description: Experimental Plasmodium chabaudi infection, survival and parasitemia. The following applies: for Survival/Number of animals: 21 days observation. It counts as in vivo, Plasmodium chabaudi (host: C57BL/6 mice).
The next data set concerns M. tuberculosis-Erdman. The arrangement: species or system Mycobacterium tuberculosis (host: C57BL/6 mice). The settings on record: mouse, in vivo.
Data set [1] deals with TH-1 and TH-2 types cytokines (IL-2, IFN-gamma, IL-4, and IL-10). Description: Cytokine dosage (sandwich-ELISA, Con-A stimulated spleen culture supernatant) in experimental L. monocytogenes infection. Format: in vivo, BALB/c mice. Background: An ELISA detects its analyte on a solid surface through an enzyme-linked reagent.
Data set [2] has as its system L. monocytogenes. The following applies: experimental animals; PI0305373-3, U.S. Ser. No. 10/978,683, EPA 0426250.3.2405; cited from earlier work.
The subject of data set [3] is L. monocytogenes. Nature of the data set: Experimental L. monocytogenes infection, lethal dose, survivors at 30 days. It counts as in vivo, Listeria monocytogenes (host: BALB/c mice). The following applies: BALB/c mice, n = 10 per group, 2×10^6 L. monocytogenes i.p.; Immunomodulator 100 mg/kg single dose i.p.; Rifampicine 2 mg/kg and Gentamicin 2 mg/kg × 5 days.
The test system of a further data set is HCV subtype I-b. Description: Clinical trial in hepatitis C patients, laboratorial parameters. The following applies: two patients (A and D) of 5; Immunomodulator 25 mg weekly i.m., 12 months; no treatment interruption.
Where [4] appears, read: Group D: Chloroquine 5 mg/kg single i.p. dose.
Where [5] appears, read: Group E: Chloroquine 2 mg/kg single i.p. dose.
The mark [6] stands for this setting: Group G: Immunomodulator 100 mg/kg i.p. single dose.
Setting [7] is: Control (non-infected) BALB/c mice, Immunomodulator 5 mg/kg/day i.p. 7 days.
Where [8] appears, read: Infected 48 h (2×10^4 L. monocytogenes i.p.), Immunomodulator 5 mg/kg/day i.p. 7 days prior to inoculation.
[9] abbreviates: Infected 72 h (2×10^4 L. monocytogenes i.p.), Immunomodulator 5 mg/kg/day i.p. 7 days prior to inoculation.

Several values for one entry are separate records, joined by “and”; a condition that tells them apart may be missing. Equal values may be shown once.

As for `Nc1nc(=O)c2ncn(COCCO)c2[nH]1` [Acyclovir, 2-amino-9-[(2-hydroxyethoxy)methyl]-3,9-dihydro-6H-purin-6-one], the “average recurrence period of time of the disease symptoms” value in the data set with Herpes sp (first stage, 30 patients) amounted to 2 months. In addition, in the data set on Herpes sp (second stage, 15 patients), the “average recurrence period of symptoms” value stood at 2 months.
Take `OC(Cn1cncn1)(Cn1cncn1)c1ccc(F)cc1F` [Antifungal]: the “% Respondents” value with Candida sp amounted to 100%. Moreover, the “Symptoms Average recurrence period” value with Candida sp (six months follow-up) is listed as 45 days.
`CCN(CC)CCCC(C)Nc1ccnc2cc(Cl)ccc12` (stereo not drawn) [Chloroquine, N′-(7-chloroquinolin-4-yl)-N,N-diethyl-pentane-1,4-Diamine]: the values for the Survival/Number of animals with Plasmodium chabaudi (Group B: Chloroquine 15 mg/kg single i.p. dose), with Plasmodium chabaudi (setting [4]) and in the data set with Plasmodium chabaudi (setting [5]) were 6-6, 0-6 and 0-6, respectively. Also, the “Parasitemia (%) ± Standart deviation (SD)” value in the data set with Plasmodium chabaudi (Group B: Chloroquine 15 mg/kg single i.p. dose, day 5) was 17 ± 0.7 (day 5) %; in the data set with Plasmodium chabaudi (Group B: Chloroquine 15 mg/kg single i.p. dose, day 21), 8 ± 1.2 (day 21%; in the data set with Plasmodium chabaudi (Group D: Chloroquine 5 mg/kg single i.p. dose, day 5), 65 ± 0.9 (day 5) %; with Plasmodium chabaudi (Group E: Chloroquine 2 mg/kg single i.p. dose, day 5), 89 ± 1.3 (day 5) %. In addition, the “increase in survival rate compared to the control groups” value with Plasmodium chabaudi (Group D: Chloroquine 5 mg/kg) was 2 days. The Day of death in the data set on Plasmodium chabaudi (setting [4]) came to 10 days; in the data set on Plasmodium chabaudi (setting [5]), 8 days. Moreover, the “difference in the survival rate to the control groups” value in the data set on Plasmodium chabaudi (Group E: Chloroquine 2 mg/kg) was “no significant difference”.
Turning to `NNC(=O)c1ccncc1` [INH, pyridine-4-carbohydrazide, reference compound], in the data set with M. tuberculosis-Erdman, the “Bacillary load - Lung + Standard Deviation (SD)” value turned out to be 3.52 ± 0.65 and the “Bacillary load - Spleen + Standard Deviation (SD)” value is recorded as 4.82 ± 0.62.
For the molecule “proteic aggregate of ammonium and magnesium phospholinoleate-palmitoleate anhydride [Immunomodulator]”, the Day of death in the data set with Plasmodium chabaudi (Group F: Immunomodulator 5 mg/kg × 5 days) was determined as 11 days. Moreover, the Survival/Number of animals with Plasmodium chabaudi (Group F: Immunomodulator 5 mg/kg × 5 days, start 1 day after infection) is recorded as 0-6. In the data set with Plasmodium chabaudi (Group F: Immunomodulator 5 mg/kg × 5 days, day 5), the “Parasitemia (%) ± Standart deviation (SD)” value is 54 ± 0.8 (day 5) %. In the data set on Plasmodium chabaudi (setting [6]), the Day of death was 12 days and the Survival/Number of animals was 0-6. Further, the “Parasitemia (%) ± Standart deviation (SD)” value with Plasmodium chabaudi (Group G: Immunomodulator 100 mg/kg i.p. single dose, day 5) was 52 ± 0.9 (day 5) %. Moreover, in the data set on Plasmodium chabaudi (Groups F and G: Immunomodulator 5 mg/kg × 5 days and 100 mg/kg single dose), the “increase in survival rate in relation to the control animals” value was in the range of 3 to 4 days. In the data set with M. tuberculosis-Erdman, the “Bacillary load - Lung + Standard Deviation (SD)” value was 5.42 ± 0.59 and 4.85 ± 0.46; the “Bacillary load - Spleen + Standard Deviation (SD)” value was 5.25 ± 0.61 and 4.93 ± 0.47. For the same molecule, in data set [1] (setting [7]), the IFN-γ is given as 1012 ± 41 pg/mL, the Il-2 is 167 ± 11 pg/mL, the Il-4 was found to be 63 ± 19 pg/mL and the Il-10 was 227 ± 37 pg/mL. Besides, in data set [1] (setting [8]), the IFN-γ is 1691 ± 62 pg/mL, the Il-2 is recorded as 206 ± 31 pg/mL, the Il-4 amounted to 75 ± 18 pg/mL and the Il-10 was 224 ± 17 pg/mL. Moreover, in data set [1] (setting [9]), the IFN-γ was 1884 ± 70 pg/mL, the Il-2 is on record as 248 ± 34 pg/mL, the Il-4 was 73 ± 11 pg/mL and the Il-10 turned out to be 221 ± 37 pg/mL. In the data set with L. monocytogenes [2], the “protection against infection by lethal dose of L. monocytogenes” value is “partial protection”. Further, in the data set on L. monocytogenes [3], the “% surviving animals - 30 days” value turned out to be 30% and the “Number surviving animals - 30 days” value came out at 3. In addition, the “tolerance at the site of injection” value in the data set on HCV subtype I-b is “mild pain and discomfort at the site of injection”.
